According to EP0291164A2, “Growth-suppressing infusion medium, growth-suppressing cell culture medium and processes for the suppression of transformed cell growth” (SPECTRAL BIOANALYSIS LTD., priority 1987, dated 1988):

What was measured:
[1] = system: Human Fibroblasts; assay: Cell growth by Lowry protein determination after 80 hours in zinc-supplemented culture medium (non-transformed control cells); format: cell-based; conditions: about 1.6 mg/l to about 4.0 mg/l of Zn⁺⁺
Excerpt: (§1) In the example, malignant transformed human cell lines obtained from the American Type Culture Collection, i.e., a human epithelial cervix carcinoma cell line, HeLa (ATCC No. CCL-2), a human adenocarcinoma carcinoma cell line of the colon, HT-29 (ATCC No. HTB-38) and a human adenocarcinoma carcinoma cell line of the breast, SK-BR-3 (ATCC No. HTB-30) were used. Non-transformed dipolid human fibroblast cells (MRC-5, ATCC No. CCL-171) were employed as a control. The cell lines were obtained from the American Type Culture Collection in a frozen condition. In order to reactivate the cells, the cells were subcultured in McCoy 5A (mod.) medium (Serva Company) containing 15% (v/v) fetal calf serum.
The reactivated cells were allowed to reach the logarithmic growth phase and then detrypsinized and harvested. […] The correct cell concentration was determined using a Neubeuer-Turk count chamber in which the viability of the cells was also determined by means of Trypan blue coloring (see: Freshney, I.R., Culture of Animal Cells, Alan Riss Publ. Co., New York, N.Y. (1983)). […]
(§2) The growth value as a percent of the Control was determined according to the following formula: [formula]
(§3) In addition, in the Table, the mean adsorption values are determinative of the concentration of protein in the cells and were evaluated at 660 nm.

[2] = system: HTB-30; assay: Cell growth by Lowry protein determination after 80 hours in zinc-supplemented culture medium; format: cell-based, human; conditions: HTB-30, about 1.6 mg/l to about 4.0 mg/l of Zn⁺⁺
Excerpt: as §1
(§4) The reactivated cells were allowed to reach the logarithmic growth phase and then detrypsinized and harvested. The harvested cells were washed twice with McCoy 5A (mod.) medium containing 15% (v/v) fetal calf serum and then resuspended in the same medium at a concentration of 10⁶ cells per ml. The correct cell concentration was determined using a Neubeuer-Turk count chamber in which the viability of the cells was also determined by means of Trypan blue coloring (see: Freshney, I.R., Culture of Animal Cells, Alan Riss Publ. Co., New York, N.Y. (1983)).
(§5) To tubes containing 200,000 HTB-30 cells or 200,000 HTB-38 cells or 200,000 CCL-2 cells was added Cell Culture Medium Nos. 1, 2, 3, 4, 5, 6, 7, 8 or 9 described below and the cells were incubated for 80 hours. In addition, to tubes containing 200,000 human fibroblast cells (MRC-5) were added Cell Culture Medium Nos. 1, 2, 3, 4, 5, 6, 7, 8 or 9 described below and the cells were incubated for 80 hours. All of the cells were incubated at 36.5°C (± 0.5°C), 5% CO₂ and 95% air. Five duplicate tubes were employed for each cell culture medium for each cell.
(§6) After the end of the incubation time, the culture medium was removed and the cells were washed three times with Dulbecco buffer solution (see: Dulbecco, R.U., Vogt, M., J. Exp. Med. 98:167-182 (1954)). Next, the cells were dried and octyl phenol polyethylene glycol ether was added at a concentration of 0.2% (v/v) to each tube to which 20 µl of 1.0 N NaOH had been additionally added per ml.
(§7) After thorough mixing and allowing the samples to stand for 30 minutes at 20-25°C, 200 µl each of the resulting cell extracts were used for protein determinations according to the Lowry method (see: Lowry, O.H. et al., J. Biol. Chem. 193:265 (1951)).
(§8) The Control in the Table below refers to Cell Culture Medium No. 1 at 4°C to which no cells had been added. […] All growth values are mean values from the five duplicate tubes ± the standard deviation.
as §2, §3

[3] = system: HTB-38; assay: as above; format: cell-based, human; conditions: for decrease in protein yield: compared to Cell Culture Medium No. 1, 4800 min
Excerpt: as §1, §4, §5, §6, §7, §8, §2, §3

[4] = system: CCL-2; assay: as above; format: cell-based, human; conditions: CCL-2, about 1.6 mg/l to about 4.0 mg/l of Zn⁺⁺
Excerpt: as §1, §4, §5, §6, §7, §8, §2, §3

[Cl-].[Cl-].[Zn+2] [bivalent zinc, ZnCl₂]
growth rate, expressed as protein concentration [1]: not inhibited
growth rate, expressed as protein concentration [2]: inhibited
decrease in protein yield ([3]; HTB-38, 3.5 mg/l of Zn⁺⁺ (maximum growth suppression)): 41.8%
growth rate, expressed as protein concentration ([3]; HTB-38, about 1.6 mg/l to about 4.0 mg/l of Zn⁺⁺): inhibited
decrease in protein yield ([3]; HTB-38, about 2.1 mg/l of Zn⁺⁺): 24.8%
growth rate, expressed as protein concentration [4]: inhibited
